Measurements from patent US6730334B2, “Multi-arm block copolymers as drug delivery vehicles” (Nektar Therapeutics AL, Corporation, priority 2001, dated 2004).
Converted amounts (≈) assume the structure as drawn.

What was measured:
[1] = Solubility of drugs in plain buffer and in PPO-PEG multi-arm block copolymer 10050 formulation; type: physicochemical; conditions: thermodynamic from solid; for solubility: aqueous buffer, phosphate buffer, 0.1 M, pH 7.4, read-out: Solubility of Drug in Plain Buffer; for solubility at 2 h: aqueous with cosolvent or surfactant or cyclodextrin, 50 mg PPO-PEG block copolymer 10050/drug formulation, 10 wt. % drug loading, in 1 ml phosphate buffer 0.1 M pH 7.4, 0.2 μm filtered
Protocol: After two hours of mixing, the mixture was filtered through 0.2 μm syringe filter. The drug concentration in the filtrate was determined by HPLC or UV using a standard curve.

[2] = Drug concentration by HPLC in drug-loaded 8-arm-PCL-PEG26kDa solution; type: physicochemical; conditions: 6 mg drug + 60 mg 8-arm-PCL-PEG26kDa (1/10) in 1 ml phosphate buffer 0.1 M pH 7.0, 0.2 μm filtered
Protocol: (§1) The solution was dried under argon. The dried solid was heated at 55° C. for two hours under argon. The melt was then cooled to room temperature, placed under vacuum overnight, and reduced to small particles. To the particles was added 1 ml of phosphate buffer (0.1 M, pH 7.0), and the resulting mixture was filtered through 0.2 μm syringe filter.
as §1, with “temperature and” for “temperature,”, “7.0). The” for “7.0), and the”

[3] = drug-loaded 8-arm-PCL-PEG26kDa, phosphate buffer 0.1 M pH 7.0, 37° C., rp-HPLC
Protocol: At timed intervals, 10 μl of sample was withdrawn and diluted with phosphate buffer (0.1 M, pH 7.0). The solution was filtered through 0.2 μm syringe filter.
At timed intervals, 10 μl of sample was withdrawn and diluted with phosphate buffer (0.1 M, pH 7.0). The solution was filtered through 0.2 μm syringe filter. The filtrate was analyzed by rp-HPLC for paclitaxel concentration.

Row | solubility [1] [µg/mL] | solubility at 2 h [1] [µg/mL] | Drug concentration by HPLC [2] | SMILES | Soluble drug concentration in solution vs. time (FIGS. 8, 9) [3]
1 | 88 (≈ 0.246 mM) | 4000 (≈ 11.2 mM) |  | COc1ccc2c(c1)c(CC(=O)O)c(C)n2C(=O)c1ccc(Cl)cc1 [Indomethacin, indomethacin] | 
2 | < 1 | 2000 (≈ 2.34 mM) | above 4.5 mg/ml | CC(=O)O[C@H]1C(=O)[C@@]2(C)[C@H]([C@H](OC(=O)c3ccccc3)[C@]3(O)C[C@H](OC(=O)[C@H](O)[C@@H](NC(=O)c4ccccc4)c4ccccc4)C(C)=C1C3(C)C)[C@]1(OC(C)=O)CO[C@@H]1C[C@@H]2O [Paclitaxel, paclitaxel] | retain the paclitaxel in solution for an extended period of time
3 |  | 12000 (≈ 59.3 mM) |  | CCCC(=O)OCOC(=O)C(C)(C)C [Pivaloyloxymethyl butyrate, pivaloyloxymethyl butyrate] | 

Row | SMILES | solubility [1] [µg/mL] | solubility at 2 h [1] [µg/mL] | Drug concentration by HPLC [2] | Soluble drug concentration in solution vs. time (FIGS. 8, 9) [3]
4 | Cn1cc(C2=C(c3cn(C)c4cc([N+](=O)[O-])ccc34)C(=O)NC2=O)c2ccc([N+](=O)[O-])cc21 [MNIPD, 3,4-di-[1-methyl 6-nitro-3-indolyl]-1H-pyrrole-2,5-dione] | < 0.5 | 2600 (≈ 5.84 mM) |  | 
